According to US20230399622A1, “THERAPY FOR DEGENERATIVE DISEASE AND TISSUE DAMAGE” (FUNDACIÓ CENTRE DE REGULACIÓ GENÒMICA, priority 2020, published 2023):

What was measured:
[1] = test system: MSCs; assay: Transwell chemotactic assay of MSCs with chemokine receptor antagonists, media conditioned by rd10 retina; assay type: cell-based, mouse; conditions: towards media conditioned by rd10 (P18) retina; vs vehicle DMSO; working concentrations of Table 2
Method: (§1) Chemotactic assays were performed using transwell inserts (pore size, 8 μm, BD Biosciences—353182) and 12-well culture plates. To test migration towards defined chemokine gradients, lower chambers were loaded with 1.2 ml of SF DMEM/F-12-GlutaMAX medium with either mCcl5, mCxcl1, mCxcl10, mCxcl16 or a combination of Ccl5 and mCxcl16 (all 50 ng/ml, Peprotech). For tests of NMDA-damage, mice were sacrificed 24 hpi; rd10 mice were sacrificed at P18. Human retina were dissected and cultured for an initial 12 hours in Neurobasal A medium, as previously described. Afterwards, both mouse and human retina were cultured for 24 hours in SF DMEM/F-12-GlutaMAX and SF Neurobasal A (with or without 1 mM NMDA) respectively. 1.2 ml of the resulting conditioned medium were loaded in the lower chambers of the transwell. The upper chamber was loaded with 2×10^5 MSCs in SF medium. The medium used to resuspend MSCs was matched to the medium in the bottom chamber: either DMEM/F-12-GlutaMAX (to test migration towards medium conditioned by mouse retina) or Neurobasal A (to test migration towards medium conditioned by human retina). […]
(§2) Transwell plates were incubated for 1.5 hours at 37° C. […] For each insert, seven fields were imaged and analysed. Cells were automatically counted using a custom-made macro for the ImageJ software (US National Institutes of Health, Bethesda, Md., USA; http://rsb.info.nih.gov/ij/).

[2] = test system: MSCs; assay: Transwell chemotactic assay of MSCs with chemokine receptor antagonists, media conditioned by NMDA-damaged retina; assay type: cell-based, mouse; conditions: towards media conditioned by NMDA-damaged (24 hpi) retina; vs vehicle DMSO; working concentrations of Table 2
Method: as §1, §2

SMILES	migration of MSCs in the presence of receptor inhibitors [1]	migration of MSCs in the presence of receptor inhibitors [2]
COc1cc(C(=O)NC2C[C@H]3CCC[C@@H](C2)N3CC(=O)Nc2ccccc2Cl)cc(OC)c1OC (stereo partly shown) [Cxcr6 inhibitor, ML 339]	significantly reduced	significantly reduced
NS(=O)(=O)c1c(Cl)ccc(NC(=O)Nc2cccc(Cl)c2Cl)c1O [Cxcr2 inhibitor, SB 332235]	not affected	not affected
